The values that follow come from PubChem BioAssay (NCI).

Molecules are shown by their SMILES.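 A five-concentration, 48-hour dose response in 96-well plates underlies each endpoint, interpolated linearly between surrounding concentrations. TGI is the concentration that stops growth completely.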

Some test systems named below: SW-620 colon; M14 melanoma; K-562 leukemia; A549 NSCLC; NCI-H522 lung; RXF 393 renal; ACHN renal; U251 CNS; NCI-H23 lung; SF-539 CNS.
Assay in all cases: NCI tumour cell line growth inhibition, 48 h

Regarding `CC(=O)C1CC(C)=CCC12C(=O)Nc1ccccc12` (stereo not given), the TGI in the assay with SW-620 colon was greater than 100 µM; in the assay with M14 melanoma it was greater than 100 µM; in the assay with K-562 leukemia, greater than 100 µM; in the assay with A549 NSCLC, greater than 100 µM; in the assay on NCI-H522 lung, greater than 100 µM; with RXF 393 renal, 68.9 µM. In addition, the TGI in the assay with ACHN renal, in the assay on U251 CNS, in the assay on NCI-H23 lung and with SF-539 CNS was greater than 100 µM each time.
